Measurements as given in paper PMC10037270 (Journal of medicinal chemistry, 2023).

Legend:
HA-mouse μOR = HA-mouse μOR (Mus musculus, UniProt P42866); assay: GloSensor cAMP inhibition assay at μOR in transfected HEK cells; assay type: cell-based; conditions: HEK293, read-out: cAMP inhibition at μOR Emax % ± SEM
μOR [1] = target: T1, μOR (Homo sapiens, UniProt P35372); assay type: binding; conditions: screen at 1 μM, [3H]DAMGO
κOR = κOR (Homo sapiens, UniProt P41145); assay type: binding
μOR [2] = target: T1, μOR; assay type: cell-based; conditions: at 10 μM, DAMGO as control
C57BL/6 mice [3] = assay: Warm-water tail-flick assay; assay type: in vivo
C57BL/6 mice [4] = assay: Hot-plate assay; assay type: in vivo
C57BL/6 mice [5] = assay: Accelerating rotarod assay; assay type: in vivo
[6] = naloxone 10 mg/kg i.p. 15 min before 33 100 mg/kg s.c.

Sequence of HA-mouse μOR (P42866 whole entry): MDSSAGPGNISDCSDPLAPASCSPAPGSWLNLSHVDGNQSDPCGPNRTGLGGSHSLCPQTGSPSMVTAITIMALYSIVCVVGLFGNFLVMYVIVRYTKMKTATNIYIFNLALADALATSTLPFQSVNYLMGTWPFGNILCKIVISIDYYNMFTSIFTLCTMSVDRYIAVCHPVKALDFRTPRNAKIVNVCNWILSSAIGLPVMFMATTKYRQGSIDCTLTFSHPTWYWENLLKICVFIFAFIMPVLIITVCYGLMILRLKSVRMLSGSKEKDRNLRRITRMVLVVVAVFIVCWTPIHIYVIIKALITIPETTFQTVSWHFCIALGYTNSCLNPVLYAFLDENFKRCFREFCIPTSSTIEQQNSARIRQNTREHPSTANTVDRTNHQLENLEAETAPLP
T1 sequence (P35372 whole entry): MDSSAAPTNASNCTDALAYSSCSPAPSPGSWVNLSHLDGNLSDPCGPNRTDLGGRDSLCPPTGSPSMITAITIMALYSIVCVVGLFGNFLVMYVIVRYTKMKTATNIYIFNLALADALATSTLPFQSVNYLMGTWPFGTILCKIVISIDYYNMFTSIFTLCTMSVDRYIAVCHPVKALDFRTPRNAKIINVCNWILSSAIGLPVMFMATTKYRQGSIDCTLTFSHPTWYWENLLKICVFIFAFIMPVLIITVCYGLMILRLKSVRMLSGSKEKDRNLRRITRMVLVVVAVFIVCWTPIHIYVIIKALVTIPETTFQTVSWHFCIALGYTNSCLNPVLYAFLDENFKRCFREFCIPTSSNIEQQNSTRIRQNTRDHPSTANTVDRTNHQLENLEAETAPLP
Sequence of κOR (P41145 whole entry): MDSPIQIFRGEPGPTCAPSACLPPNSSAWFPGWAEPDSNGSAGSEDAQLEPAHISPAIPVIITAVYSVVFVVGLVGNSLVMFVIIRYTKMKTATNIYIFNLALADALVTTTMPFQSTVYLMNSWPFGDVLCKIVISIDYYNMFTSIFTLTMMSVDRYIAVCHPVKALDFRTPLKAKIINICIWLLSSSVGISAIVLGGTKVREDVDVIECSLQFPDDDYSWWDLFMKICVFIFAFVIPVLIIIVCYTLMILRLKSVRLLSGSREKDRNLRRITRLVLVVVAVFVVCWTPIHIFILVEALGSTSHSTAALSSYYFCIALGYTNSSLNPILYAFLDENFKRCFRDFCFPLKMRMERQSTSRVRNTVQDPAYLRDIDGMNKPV

SMILES: C[C@@H](NC(=O)[C@@H](N)Cc1ccc(O)cc1)C(=O)NCC(=O)N(C)[C@@H](Cc1ccccc1)C(=O)NCCO [DAMGO, (2S)-2-[[2-[[(2R)-2-[[(2S)-2-Amino-3-(4-hydroxyphenyl)propanoyl]amino]propanoyl]amino]acetyl]-methylamino]-N-(2hydroxyethyl)-3-phenylpropanamide, reference compound]
- Emax (HA-mouse μOR): 96 ± 4%

SMILES: C/C=C1/CN2CC[C@@]34c5cc(O)c(I)cc5N(C)[C@]35OC[C@@]4(C(=O)OC)[C@H]1C[C@H]25 [Compound 20, 11-Iodoakuammine]
- radioligand displacement at μOR (μOR [1]): > 50%
- radioligand displacement at κOR (κOR): > 50%
- Emax (HA-mouse μOR): 32 ± 6%

SMILES: C/C=C1\CN2CC[C@@]34c5ccccc5N(CCc5ccccc5)[C@]35OC[C@@]4(C(=O)OC)[C@H]1C[C@H]25 [Compound 33, N-1-Phenethyl psuedoakuammigine]
- Emax (HA-mouse μOR): 76 ± 5%
- recruitment of βArr2 to the μOR (μOR [2]): < 10%
- ED50 (C57BL/6 mice [3]; Mus musculus, sc, read-out: ED50 tail-flick assay): 77.6 mg/kg
- antinociception versus morphine (10 mg/kg), peak effect and duration (C57BL/6 mice [3]; mice, 100 mg/kg s.c., tail-flick): comparable to that of the morphine
- antinociceptive effect in tail-flick assay (C57BL/6 mice [3]; mice, 80 and 100 mg/kg s.c.): exhibited antinociceptive effect
- antinociceptive effect after naloxone pretreatment, tail-flick (C57BL/6 mice [3]; [6]): completely blocked by naloxone
- antinociceptive effect in hot-plate assay (C57BL/6 mice [4]; mice, 80 and 100 mg/kg s.c.): exhibited antinociceptive effect
- antinociceptive effect after naloxone pretreatment, hot-plate (C57BL/6 mice [4]; [6]): completely blocked by naloxone
- effect on locomotor activity, latency to fall (C57BL/6 mice [5]; 65 mg/kg and 80 mg/kg s.c., accelerating rotarod 4-40 rpm over 300 s): significantly impaired motor activity
- effect on motor coordination (C57BL/6 mice [5]; high doses (80, 100 mg/kg, s.c.)): impair motor coordination

SMILES: C/C=C1/CN2CC[C@@]34c5cc(O)ccc5N(C)[C@]35OC[C@@]4(C(=O)OC)[C@H]1C[C@H]25 [Compound 1, Akuammine, reference compound]
- Emax (HA-mouse μOR): 62 ± 6%

SMILES: C/C=C1/CN2CC[C@@]34c5cc(O)c(Br)cc5N(C)[C@]35OC[C@@]4(C(=O)OC)[C@H]1C[C@H]25 [Compound 19, 11-Bromoakuammine]
- radioligand displacement at μOR (μOR [1]): > 50%
- radioligand displacement at κOR (κOR): > 50%
- Emax (HA-mouse μOR): 40 ± 5%

SMILES: C/C=C1/CN2CC[C@@]34c5ccccc5N(C)[C@]35OC[C@@]4(C(=O)OC)[C@H]1C[C@H]25 [Compound 2, Pseudoakuammigine, reference compound]
- Emax (HA-mouse μOR): 82 ± 7%

SMILES: C/C=C1\CN2CC[C@@]34c5ccccc5N(Cc5ccccc5)[C@]35OC[C@@]4(C(=O)OC)[C@H]1C[C@H]25 [Compound 32, N-1-Benzyl psuedoakuammigine]
- Emax (HA-mouse μOR): 63 ± 4%

SMILES: C/C=C1\CN2CC[C@@]34c5ccccc5N(CC)[C@]35OC[C@@]4(C(=O)OC)[C@H]1C[C@H]25 [Compound 31, N-1-Ethyl psuedoakuammigine]
- Emax (HA-mouse μOR): 59 ± 4%
